Source: patent publication US20250195536A1, “BICYCLOOCTANE KRAS INHIBITORS” (Incyte Corporation, priority 2023, published 2025)

Tests used:
KRAS G12D = KRAS G12D (Homo sapiens, UniProt P01116, G12D); test: GDP-GTP exchange assay (KRAS G12D); assay type: biochemical; conditions: bodipy-GDP/GppNHp exchange with SOS1; 4 h pre-incubation, 2 h reaction;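 further: one dagger IC50 up to 100 nM and two daggers above 100 nM up to 1 μM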
Method in brief: (§1)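 Bodipy-GDP-loaded KRAS (2.5 nM final) was pre-incubated 4 h at r.t. with inhibitor in Hepes pH 7.5 buffer with MgCl2, then exchange started with GppNHp (500 μM) and SOS1 (150 nM) final. Fluorescence (ex 485/em 520 nm) read after 2 h for G12D, 3 h for G12V; IC50 from four-parameter logistic fit.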

KRAS G12V = KRAS G12V (Homo sapiens, UniProt P01116, G12V); test: GDP-GTP exchange assay (KRAS G12V); assay type: biochemical; conditions: bodipy-GDP/GppNHp exchange with SOS1; 3 h incubation after GppNHp-SOS1;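 further: one dagger IC50 up to 100 nM and two daggers above 100 nM up to 1 μM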
Method in brief: as §1

[1] = Caco2 assay (permeability, Papp A-B); assay type: in vitro ADME; conditions: human, Caco-2, absorptive direction (A-B), 50 μM test compound, 4% BSA in receiver
Method in brief: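 Caco-2 monolayers, 22-25 days on Transwells, TEER 300 Ω·cm^2, dosed apically with 50 μM compound in HBSS; basolateral HBSS with 4% BSA. 120 min at 37 °C, samples quantified by LCMS; Papp (A-B) from receiver-side cumulative flux slope, donor volume, surface area and initial donor amount.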

Chain of KRAS G12V (P01116 1-188 isoform P01116-2 G12V): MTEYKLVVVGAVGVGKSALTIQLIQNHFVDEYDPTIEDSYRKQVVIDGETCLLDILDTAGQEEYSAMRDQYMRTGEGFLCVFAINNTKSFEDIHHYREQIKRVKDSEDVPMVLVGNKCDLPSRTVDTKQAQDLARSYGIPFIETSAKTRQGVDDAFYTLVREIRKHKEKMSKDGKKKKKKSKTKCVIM
Chain of KRAS G12D (P01116 1-188 isoform P01116-2 G12D): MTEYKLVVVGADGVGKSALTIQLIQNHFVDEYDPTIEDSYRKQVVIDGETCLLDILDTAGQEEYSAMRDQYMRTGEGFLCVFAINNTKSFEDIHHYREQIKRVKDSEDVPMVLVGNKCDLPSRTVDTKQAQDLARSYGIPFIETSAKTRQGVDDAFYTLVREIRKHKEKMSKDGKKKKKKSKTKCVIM

Cc1noc(C)c1S(=O)(=O)N1C[C@@H]2C[C@H](C1)N(C(=O)C1CC1)[C@H]2c1cc2c(C)nc3c(F)c(-c4cccc(Cl)c4Cl)c(CCC#N)cc3c2n1[C@H]1[C@H]2CN[C@@H]1C2 (atropisomer, axis not shown; (Ra)) [Example 110, 3-((Ra)-1-((1R,4R,5S)-2-Azabicyclo[2.1.1]hexan-5-yl)-2-((1 S,5R,7R)-6-(cyclopropanecarbonyl)-3-((3,5-dimethylisoxazol-4-yl)sulfonyl)-3,6-diazabicyclo[3.2.1]octan-7-yl)-7-(2,3-dichlorophenyl)-6-fluoro-4-methyl-1H-pyrrolo[3,2-c]quinolin-8-yl)propanenitrile]
G12D_exchange (KRAS_G12D exchange assay IC50) (KRAS G12D): † | G12V_exchange (KRAS_G12V exchange assay IC50) (KRAS G12V): † | Papp A→B at 120 min, 50 μM [1]: ≤ 0.5 ×10⁻⁶ cm/s

Cc1nc2c(F)c(-c3cccc(Cl)c3Cl)c(CCC#N)cc2c2c1cc([C@H]1[C@H]3C[C@H](CN(c4ccn5nccc5c4)C3)N1C(=O)C1CC1)n2[C@H]1[C@H]2CN[C@@H]1C2 (atropisomer, axis not shown; (Ra)) [Example 71, 3-((Ra)-1-((1R,4R,5S)-2-azabicyclo[2.1.1]hexan-5-yl)-2-((1S,5R,7R)-6-(cyclopropanecarbonyl)-3-(pyrazolo[1,5-a]pyridin-5-yl)-3,6-diazabicyclo[3.2.1]octan-7-yl)-7-(2,3-dichlorophenyl)-6-fluoro-4-methyl-1H-pyrrolo[3,2-c]quinolin-8-yl)propanenitrile]
G12D_exchange (KRAS_G12D exchange assay IC50) (KRAS G12D): † | G12V_exchange (KRAS_G12V exchange assay IC50) (KRAS G12V): † | Papp A→B at 120 min, 50 μM [1]: ≤ 0.5 ×10⁻⁶ cm/s

Cc1nc2c(F)c(-c3cccc(Cl)c3Cl)c(CCC#N)cc2c2c1cc([C@H]1[C@H]3C[C@H](CN(c4cn(C)nc4C(F)(F)F)C3)N1C(=O)C1CC1)n2[C@H]1[C@H]2CN[C@@H]1C2 (atropisomer, axis not shown; (Ra)) [Example 29, 3-((Ra)-1-((1R,4R,5S)-2-azabicyclo[2.1.1]hexan-5-yl)-2-((1S,5R,7R)-6-(cyclopropanecarbonyl)-3-(1-methyl-3-(trifluoromethyl)-1H-pyrazol-4-yl)-3,6-diazabicyclo[3.2.1]octan-7-yl)-7-(2,3-dichlorophenyl)-6-fluoro-4-methyl-1H-pyrrolo[3,2-c]quinolin-8-yl)propanenitrile]
G12D_exchange (KRAS_G12D exchange assay IC50) (KRAS G12D): † | G12V_exchange (KRAS_G12V exchange assay IC50) (KRAS G12V): † | Papp A→B at 120 min, 50 μM [1]: ≤ 0.5 ×10⁻⁶ cm/s

Cc1nc2c(F)c(-c3cccc(Cl)c3Cl)c(CCC#N)cc2c2c1cc([C@H]1[C@H]3C[C@H](CN(c4cccc(C(F)(F)F)c4)C3)N1C(=O)C1CC1)n2[C@H]1[C@H]2CN[C@@H]1C2 (atropisomer, axis not shown; (Ra)) [Example 10, 3-((Ra)-1-((1R,4R,5S)-2-azabicyclo[2.1.1]hexan-5-yl)-2-((1S,5R,7R)-6-(cyclopropanecarbonyl)-3-(3-(trifluoromethyl)phenyl)-3,6-diazabicyclo[3.2.1]octan-7-yl)-7-(2,3-dichlorophenyl)-6-fluoro-4-methyl-1H-pyrrolo[3,2-c]quinolin-8-yl)propanenitrile]
G12D_exchange (KRAS_G12D exchange assay IC50) (KRAS G12D): †† | G12V_exchange (KRAS_G12V exchange assay IC50) (KRAS G12V): † | Papp A→B at 120 min, 50 μM [1]: ≤ 0.5 ×10⁻⁶ cm/s

Cc1nc2c(F)c(-c3cccc(Cl)c3Cl)c(CCC#N)cc2c2c1cc([C@H]1[C@H]3C[C@H](CN(c4ccc(C(F)(F)F)cc4)C3)N1C(=O)C1CC1)n2[C@H]1[C@H]2CN[C@@H]1C2 (atropisomer, axis not shown; (Ra)) [Example 12, 3-((Ra)-1-((1R,4R,5S)-2-azabicyclo[2.1.1]hexan-5-yl)-2-((1S,5R,7R)-6-(cyclopropanecarbonyl)-3-(4-(trifluoromethyl)phenyl)-3,6-diazabicyclo[3.2.1]octan-7-yl)-7-(2,3-dichlorophenyl)-6-fluoro-4-methyl-1H-pyrrolo[3,2-c]quinolin-8-yl)propanenitrile]
G12D_exchange (KRAS_G12D exchange assay IC50) (KRAS G12D): †† | G12V_exchange (KRAS_G12V exchange assay IC50) (KRAS G12V): † | Papp A→B at 120 min, 50 μM [1]: ≤ 0.5 ×10⁻⁶ cm/s

Cc1nc2c(F)c(-c3cccc(Cl)c3Cl)c(CCC#N)cc2c2c1cc([C@H]1[C@H]3C[C@H](CN(c4ccn(C(C)C)c(=O)c4)C3)N1C(=O)C1CC1)n2[C@H]1[C@H]2CN[C@@H]1C2 (atropisomer, axis not shown; (Ra)) [Example 68, 3-((Ra)-1-((1R,4R,5S)-2-azabicyclo[2.1.1]hexan-5-yl)-2-((1S,5R,7R)-6-(cyclopropanecarbonyl)-3-(1-isopropyl-2-oxo-1,2-dihydropyridin-4-yl)-3,6-diazabicyclo[3.2.1]octan-7-yl)-7-(2,3-dichlorophenyl)-6-fluoro-4-methyl-1H-pyrrolo[3,2-c]quinolin-8-yl)propanenitrile]
G12D_exchange (KRAS_G12D exchange assay IC50) (KRAS G12D): † | G12V_exchange (KRAS_G12V exchange assay IC50) (KRAS G12V): † | Papp A→B at 120 min, 50 μM [1]: ≤ 0.5 ×10⁻⁶ cm/s

Cc1nc2c(F)c(-c3cccc(Cl)c3Cl)c(CCC#N)cc2c2c1cc([C@H]1[C@H]3C[C@H](CN(c4ccc(OC(F)F)cc4)C3)N1C(=O)C1CC1)n2[C@H]1[C@H]2CN[C@@H]1C2 (atropisomer, axis not shown; (Ra)) [Example 25, 3-((Ra)-1-((1R,4R,5S)-2-azabicyclo[2.1.1]hexan-5-yl)-2-((1S,5R,7R)-6-(cyclopropanecarbonyl)-3-(4-(difluoromethoxy)phenyl)-3,6-diazabicyclo[3.2.1]octan-7-yl)-7-(2,3-dichlorophenyl)-6-fluoro-4-methyl-1H-pyrrolo[3,2-c]quinolin-8-yl)propanenitrile]
G12D_exchange (KRAS_G12D exchange assay IC50) (KRAS G12D): †† | G12V_exchange (KRAS_G12V exchange assay IC50) (KRAS G12V): † | Papp A→B at 120 min, 50 μM [1]: ≤ 0.5 ×10⁻⁶ cm/s

Cc1nc(N2C[C@@H]3C[C@H](C2)N(C(=O)C2CC2)[C@H]3c2cc3c(C)nc4c(F)c(-c5cccc(Cl)c5Cl)c(CCC#N)cc4c3n2[C@H]2[C@H]3CN[C@@H]2C3)sc1C#N (atropisomer, axis not shown; (Ra)) [Example 98, 2-((1S,5R,7R)-7-((Ra)-1-((1R,4R,5S)-2-azabicyclo[2.1.1]hexan-5-yl)-8-(2-cyanoethyl)-7-(2,3-dichlorophenyl)-6-fluoro-4-methyl-1H-pyrrolo[3,2-c]quinolin-2-yl)-6-(cyclopropanecarbonyl)-3,6-diazabicyclo[3.2.1]octan-3-yl)-4-methylthiazole-5-carbonitrile]
G12D_exchange (KRAS_G12D exchange assay IC50) (KRAS G12D): † | G12V_exchange (KRAS_G12V exchange assay IC50) (KRAS G12V): † | Papp A→B at 120 min, 50 μM [1]: ≤ 0.5 ×10⁻⁶ cm/s

COC(=O)N1[C@@H]2C[C@@H](CN(c3cc(C(C)(F)F)ncn3)C2)[C@@H]1c1cc2c(C)nc3c(F)c(-c4cccc(Cl)c4Cl)c(CCC#N)cc3c2n1[C@H]1[C@H]2CN[C@@H]1C2 (atropisomer, axis not shown; (Ra)) [Example 124, Methyl (1 S,5R,7R)-7-((Ra)-1-((1R,4R,5S)-2-azabicyclo[2.1.1]hexan-5-yl)-8-(2-cyanoethyl)-7-(2,3-dichlorophenyl)-6-fluoro-4-methyl-1H-pyrrolo[3,2-c]quinolin-2-yl)-3-(6-(1,1-difluoroethyl)pyrimidin-4-yl)-3,6-diazabicyclo[3.2.1]octane-6-carboxylate]
G12D_exchange (KRAS_G12D exchange assay IC50) (KRAS G12D): † | G12V_exchange (KRAS_G12V exchange assay IC50) (KRAS G12V): † | Papp A→B at 120 min, 50 μM [1]: ≤ 0.5 ×10⁻⁶ cm/s

Cc1nc2c(F)c(-c3cccc(Cl)c3Cl)c(CCC#N)cc2c2c1cc([C@H]1[C@H]3C[C@H](CN(c4cccc(C#N)c4)C3)N1C(=O)C1CC1)n2[C@H]1[C@H]2CN[C@@H]1C2 (atropisomer, axis not shown; (Ra)) [Example 17, 3-((1S,5R,7R)-7-((Ra)-1-((1R,4R,5S)-2-azabicyclo[2.1.1]hexan-5-yl)-8-(2-cyanoethyl)-7-(2,3-dichlorophenyl)-6-fluoro-4-methyl-1H-pyrrolo[3,2-c]quinolin-2-yl)-6-(cyclopropanecarbonyl)-3,6-diazabicyclo[3.2.1]octan-3-yl)benzonitrile]
G12D_exchange (KRAS_G12D exchange assay IC50) (KRAS G12D): †† | G12V_exchange (KRAS_G12V exchange assay IC50) (KRAS G12V): † | Papp A→B at 120 min, 50 μM [1]: ≤ 0.5 ×10⁻⁶ cm/s

Cc1nc2c(F)c(-c3cccc(Cl)c3Cl)c(CCC#N)cc2c2c1cc([C@H]1[C@H]3C[C@H](CN(c4ccn(C)c(=O)c4)C3)N1C(=O)C1CC1)n2[C@H]1[C@H]2CN[C@@H]1C2 (atropisomer, axis not shown; (Ra)) [Example 35, 3-((Ra)-1-((1R,4R,5S)-2-azabicyclo[2.1.1]hexan-5-yl)-2-((1S,5R,7R)-6-(cyclopropanecarbonyl)-3-(1-methyl-2-oxo-1,2-dihydropyridin-4-yl)-3,6-diazabicyclo[3.2.1]octan-7-yl)-7-(2,3-dichlorophenyl)-6-fluoro-4-methyl-1H-pyrrolo[3,2-c]quinolin-8-yl)propanenitrile]
G12D_exchange (KRAS_G12D exchange assay IC50) (KRAS G12D): † | G12V_exchange (KRAS_G12V exchange assay IC50) (KRAS G12V): † | Papp A→B at 120 min, 50 μM [1]: ≤ 0.5 ×10⁻⁶ cm/s

Cc1nc2c(F)c(-c3cccc(Cl)c3Cl)c(CCC#N)cc2c2c1cc([C@H]1[C@@H]3COC(=O)[C@@H](C3)N1C(=O)C1CC1)n2[C@H]1[C@H]2CN[C@@H]1C2 (atropisomer, axis not shown; (Ra)) [Example 116, 3-((Ra)-1-((1R,4R,5S)-2-Azabicyclo[2.1.1]hexan-5-yl)-2-((1R,5R,7R)-6-(cyclopropanecarbonyl)-4-oxo-3-oxa-6-azabicyclo[3.2.1]octan-7-yl)-7-(2,3-dichlorophenyl)-6-fluoro-4-methyl-1H-pyrrolo[3,2-c]quinolin-8-yl)propanenitrile]
G12D_exchange (KRAS_G12D exchange assay IC50) (KRAS G12D): † | G12V_exchange (KRAS_G12V exchange assay IC50) (KRAS G12V): † | Papp A→B at 120 min, 50 μM [1]: ≤ 0.5 ×10⁻⁶ cm/s
